Laboratory results from ChEMBL document CHEMBL1124001, “Synthesis and antileukemic activity of bis[[(carbamoyl)oxy]methyl]- substituted pyrrolo[2,1-a]isoquinolines, pyrrolo[1,2-a]quinolines, pyrrolo[2,1-a]isobenzazepines, and pyrrolo[1,2-a]benzazepines” (J Med Chem, 1988).

Assays:
Mus musculus [1] = experiment: Body weight change of test animals to that of control was determined after injection at 50 mg/kg intraperitoneally in CD2F1 mice; assay type: functional; conditions: route intraperitoneal
Mus musculus [2] = experiment: Ratio of treated to that of untreated tumor-bearing control animals at 6.25 mg/kg intraperitoneally in CD2F1 mice was determined; assay type: functional; conditions: route intraperitoneal
Mus musculus [3] = experiment: Toxicity day survivors was determined by the ratio of animals survived to that of test animals at 25 mg/kg intraperitoneally in CD2F1 mice; 4/6; assay type: organism-based; parameters: dose 25 mg/kg, route intraperitoneal; conditions: in vivo, ip
Mus musculus [4] = experiment: Ratio of treated to that of untreated tumor-bearing control animals at 3.12 mg/kg intraperitoneally in CD2F1 mice was determined; assay type: functional; conditions: route intraperitoneal
Mus musculus [5] = experiment: Body weight change of test animals to that of control was determined after injection at 6.25 mg/kg intraperitoneally in CD2F1 mice; assay type: functional; conditions: route intraperitoneal
Mus musculus [6] = experiment: Toxicity day survivors was determined by the ratio of animals survived to that of test animals at 12.5 mg/kg intraperitoneally in CD2F1 mice; 6/6; assay type: organism-based; parameters: dose 12.5 mg/kg, route intraperitoneal; conditions: in vivo, ip
Mus musculus [7] = experiment: Body weight change of test animals to that of control was determined after injection at 12.5 mg/kg intraperitoneally in CD2F1 mice; assay type: functional; conditions: route intraperitoneal
Mus musculus [8] = experiment: Body weight change of test animals to that of control was determined after injection at 1.56 mg/kg intraperitoneally in CD2F1 mice; assay type: functional; conditions: route intraperitoneal
Mus musculus [9] = experiment: Ratio of treated to that of untreated tumor-bearing control animals at 12.5 mg/kg intraperitoneally in CD2F1 mice was determined; assay type: functional; conditions: route intraperitoneal
Mus musculus [10] = experiment: Net log cell kill was determined after injecting 3.12 mg/kg intraperitoneally in CD2F1 mice; assay type: functional; conditions: route intraperitoneal
Mus musculus [11] = experiment: Body weight change of test animals to that of control was determined after injection at 25 mg/kg intraperitoneally in CD2F1 mice; assay type: functional; conditions: route intraperitoneal
Mus musculus [12] = experiment: Net log cell kill was determined after injecting 1.56 mg/kg intraperitoneally in CD2F1 mice; assay type: functional; conditions: route intraperitoneal
Mus musculus [13] = experiment: Toxicity day survivors was determined by the ratio of animals survived to that of test animals at 6.25 mg/kg intraperitoneally in CD2F1 mice; 6/6; assay type: organism-based; parameters: dose 6.25 mg/kg, route intraperitoneal; conditions: in vivo, ip
Mus musculus [14] = experiment: Net log cell kill was determined after injecting 6.25 mg/kg intraperitoneally in CD2F1 mice; assay type: functional; conditions: route intraperitoneal
Mus musculus [15] = experiment: Toxicity day survivors was determined by the ratio of animals survived to that of test animals at 100 mg/kg intraperitoneally in CD2F1 mice; 0/6; assay type: organism-based; parameters: dose 100 mg/kg, route intraperitoneal; conditions: in vivo, ip
Mus musculus [16] = experiment: Body weight change of test animals to that of control was determined after injection at 3.12 mg/kg intraperitoneally in CD2F1 mice; assay type: functional; conditions: route intraperitoneal
Mus musculus [17] = experiment: Toxicity day survivors was determined by the ratio of animals survived to that of test animals at 50 mg/kg intraperitoneally in CD2F1 mice; 3/6; assay type: organism-based; parameters: dose 50 mg/kg, route intraperitoneal; conditions: in vivo, ip
Mus musculus [18] = experiment: Toxicity day survivors was determined by the ratio of animals survived to that of test animals at 1.56 mg/kg intraperitoneally in CD2F1 mice; 6/6; assay type: organism-based; parameters: dose 1.56 mg/kg, route intraperitoneal; conditions: in vivo, ip
Mus musculus [19] = experiment: Toxicity day survivors was determined by the ratio of animals survived to that of test animals at 3.12 mg/kg intraperitoneally in CD2F1 mice; 6/6; assay type: organism-based; parameters: dose 3.12 mg/kg, route intraperitoneal; conditions: in vivo, ip
Mus musculus [20] = experiment: Net log cell kill was determined after injecting 12.5 mg/kg intraperitoneally in CD2F1 mice; assay type: functional; conditions: route intraperitoneal
Mus musculus [21] = experiment: Ratio of treated to that of untreated tumor-bearing control animals at 1.56 mg/kg intraperitoneally in CD2F1 mice was determined; assay type: functional; conditions: route intraperitoneal
Mus musculus [22] = experiment: Ratio of treated to that of untreated tumor-bearing control animals at 25 mg/kg intraperitoneally in CD2F1 mice was determined; assay type: functional; conditions: route intraperitoneal
Mus musculus [23] = experiment: Body weight change of test animals to that of control was determined after injection at 100 mg/kg intraperitoneally in CD2F1 mice; assay type: functional; conditions: route intraperitoneal
Mus musculus [24] = experiment: Toxicity day survivors was determined by the ratio of animals survived to that of test animals at 100 mg/kg intraperitoneally in CD2F1 mice; 2/6; assay type: organism-based; parameters: dose 100 mg/kg, route intraperitoneal; conditions: in vivo, ip
Mus musculus [25] = experiment: Net log cell kill was determined after injecting 50 mg/kg intraperitoneally in CD2F1 mice; assay type: functional; conditions: route intraperitoneal
Mus musculus [26] = experiment: Ratio of treated to that of untreated tumor-bearing control animals at 50 mg/kg intraperitoneally in CD2F1 mice was determined; assay type: functional; conditions: route intraperitoneal
Mus musculus [27] = experiment: Toxicity day survivors was determined by the ratio of animals survived to that of test animals at 50 mg/kg intraperitoneally in CD2F1 mice; 6/6; assay type: organism-based; parameters: dose 50 mg/kg, route intraperitoneal; conditions: in vivo, ip
Mus musculus [28] = experiment: Net log cell kill was determined after injecting 25 mg/kg intraperitoneally in CD2F1 mice; assay type: functional; conditions: route intraperitoneal
Mus musculus [29] = experiment: Toxicity day survivors was determined by the ratio of animals survived to that of test animals at 25 mg/kg intraperitoneally in CD2F1 mice; 6/6; assay type: organism-based; parameters: dose 25 mg/kg, route intraperitoneal; conditions: in vivo, ip

SMILES | T-C (Mus musculus [1]) | T/C (Mus musculus [2]) | T-C (Mus musculus [5]) | TDS (Mus musculus [6]) | T-C (Mus musculus [7]) | T/C (Mus musculus [9]) | T-C (Mus musculus [11]) | TDS (Mus musculus [13]) | KE (Mus musculus [14]) | KE (Mus musculus [20]) | further results
CC(C)NC(=O)OCc1cn2c(c1COC(=O)NC(C)C)-c1ccccc1CC2 | -3.5 g | 157% | -0.8 g | 6 | -3.1 g | 188% | -4.2 g | 6 | 1.6 | 3.84 | TDS (Mus musculus [3]): 4; T/C (Mus musculus [4]): 136%; T-C (Mus musculus [8]): -0.3 g; KE (Mus musculus [10]): 0; KE (Mus musculus [12]): -0.38; TDS (Mus musculus [15]): 0; T-C (Mus musculus [16]): -0.5 g; TDS (Mus musculus [17]): 3; TDS (Mus musculus [18]): 6; TDS (Mus musculus [19]): 6; T/C (Mus musculus [21]): 130%
Cc1c(COC(=O)NC(C)C)c(COC(=O)NC(C)C)c2n1CCc1ccccc1-2 | -4 g | 153% | -0.9 g | 6 | -2.6 g | 157% | -4.2 g | 6 | 1.28 | 1.6 | T/C (Mus musculus [22]): 166%; T-C (Mus musculus [23]): -3.8 g; TDS (Mus musculus [24]): 2; KE (Mus musculus [25]): 2.82; T/C (Mus musculus [26]): 174%; TDS (Mus musculus [27]): 6; KE (Mus musculus [28]): 2.24; TDS (Mus musculus [29]): 6
